In US20020176842A1, “Extended release of active ingredients” (priority 2001, published 2002):

Assay: Spectrophotometric absorption test method (uptake of drug by unloaded resin)
Assay type: physicochemical
Conditions: within 5 hours; 55 ml of 98 mg/l indomethacin in simulated intestinal fluid, 43 mg Cholestyramine USP, 318 nm
Protocol: It is important that the drug be absorbed by the resin. The following test method is useful in determining drug absorption by the resin. In this illustration of the test method, indomethacin and cholestyramine are used. Equipment was set up as described in Example 1, except that the effluent from the uv cell was directed back to the inlet of the pump to produce a circulation flow. 55 ml of a 98 mg/1 solution of indomethacin in simulated intestinal fluid, prepared as described below, was charged to the filtration cell and the pump and stirrer started. Flow rate was approximately 6 ml/min. Absorbance readings were taken on the uv spectrophotometer at a wavelength of 318nm until a steady baseline was obtained. 43 mg of Cholestyramine USP that had been screened to remove particles <75 microns was then added to the cell. Absorbance readings were then taken at frequent intervals to observe the uptake of indomethacin. The absorbance readings were used to calculate the indomethacin concentration from a suitably determined calibration curve and to calculate the total amount of indomethacin absorbed by the resin. In the case of the indomethacin, 92% was absorbed within 5 hours.
Preparation of simulated intestinal fluid: a solution of 6.8 g/l potassium dihydrogen phosphate in deionized water was prepared and sufficient 0.2 mol/1 sodium hydroxide s added to achieve a pH of 7.5.

indomethacin absorbed by the resin: 92%
SMILES: COc1ccc2c(c1)c(CC(=O)O)c(C)n2C(=O)c1ccc(Cl)cc1 [indomethacin]
